Results published in US11542316B2, “S-Arrestin peptides and therapeutic uses thereof” (APITOPE INTERNATIONAL NV, priority 2017, dated 2023).
Ends that are not written are not given here.

Tests used:
[1] = tested on: LN cells and splenocytes upon SAg or peptide restimulation; experiment: Ex vivo tolerization experiment, DR2tg mice; type: in vivo; conditions: DR2 mice, IFN-γ
Description: FIG. 7: Ex vivo tolerisation protocol. Mice are injected subcutaneously in the flank with 0.1 μg/ml, 1 μg/ml and 10 μg/ml peptide on days −15, −13 and −11, followed by 3 injections of 100 μg/ml on days −8, −6 and −4 (escalating dose regime). On day 0, mice are immunized subcutaneously at the base of the tail with SAg/CFA or peptide/CFA. Mice are sacrificed 10 days after immunization to measure proliferation of LN cells and splenocytes upon SAg or peptide restimulation. LN, lymph nodes.
FIG. 11: Ex vivo tolerance induction by HIP-9K1-KKK apitope. DR2 mice are injected subcutaneously in the flank with 0.1 μg/ml, 1 μg/ml and 10 μg/ml HIP-9K1-KKK on days −15, −13 and −11, followed by 3 injections of 100 μg/ml on days −8, −6 and −4 (escalating dose regime). On day 0, mice are immunized subcutaneously at the base of the tail with HIP-9FL/CFA. Mice are sacrificed 10 days after immunization to measure proliferation of LN cells and splenocytes upon SAg or peptide restimulation. Data represent mean±SEM of the concentration values for the PBS-treated mice (black lines) and peptide-treated mice (color lines). IFN-γ production expressed as IFN-γ concentration (pg/ml). Two-way ANOVA was used to measure overall treatment effects on T cell activation and p-values are written in the graphs. Bonferonni post-hoc testing was used and significant differences are indicated in the graphs (* p<0.05; **** p<0.0001). LN, lymph nodes. (A) Tolerisation against SAg in LN. (B) Tolerisation against HIP-9FL and HIP-9K1-KKK in LN. (C) Tolerisation against SAg in spleen. (D) Tolerisation against HIP-9FL and HIP-9K1-KKK in spleen.
FIG. 13: Ex vivo tolerance induction by HIP-12G1-KKK apitope. DR2 mice are injected subcutaneously in the flank with 0.1 μg/ml, 1 μg/ml and 10 μg/ml HIP-12G1-KKK on days −15, −13 and −11, followed by 3 injections of 100 μg/ml on days −8, −6 and −4 (escalating dose regime). On day 0, mice are immunized subcutaneously at the base of the tail with HIP-12AK/CFA. Mice are sacrificed 10 days after immunization to measure proliferation of LN cells and splenocytes upon SAg or peptide restimulation. Data represent mean±SEM of the concentration values for the PBS-treated mice (black lines) and peptide-treated mice (color lines). IFN-γ production expressed as IFN-γ concentration (pg/ml). Two-way ANOVA was used to measure overall treatment effects on T cell activation and p-values are written in the graphs. Bonferonni post-hoc testing was used and significant differences are indicated in the graphs (** p<0.01; *** p<0.001: **** p<0.0001). LN, lymph nodes. (A) Tolerisation against HIP-12G1-KKK and HIP-12G1 in LN. (B) Tolerisation against HIP-12G1-KKK in spleen.
DR3tg or DR2tg mice were injected subcutaneously in the flank region with 0.1 μg, 1 μg and 10 μg of peptide on days −15, −13 and −11 respectively, followed by 3 injections of 100 μg peptide on days −8, −6 and −4 (dose escalation schedule). On day 0, the mice were immunised subcutaneously in the base of the tail with 50 μg antigen (parental peptide) emulsified in CFA (peptide/CFA). Ten days after immunisation, draining lymph nodes (LN) and spleens were harvested. LN cells and splenocytes were isolated and cultured in X-vivo 15 medium (supplemented with 2 mM L-glutamine, 50 U/mL penicillin and 50 U/mL streptomycin; Lonza) in 96-well flat bottom plates. To investigate antigen-induced cell proliferation, 0.5×10^6 cells/well were cultured (200 μl/well) for 72 hours with different antigen concentrations (0-25 μg/ml) or with 12.5 μg/ml purified protein derivative (PPD; priming control; Statens serum institut, Copenhagen, Denmark). After 72 hours, supernatant was harvested and stored at −80° C. until further analysis. IFN-γ concentrations in supernatants were assessed by cytokine ELISA (R&D Systems, Abingdon, UK) to measure cell activation.

[2] = tested on: SAg-specific hybridoma cells / T cell line with VAVY APC; experiment: Antigen Processing Independent Presentation System (APIPS) assay, fresh or fixed VAVY APC; type: cell-based, DR3 mice; conditions: DR3 hybridoma clone (IL-2, 48 h) or T cell line (IFN-γ, 24 h)
Description: (§1) FIG. 2: identification of apitopes within HIP-115. (A) DR3 mice were immunized with SAg and hybridomas were generated. 5×10^4 SAg-specific hybridoma cells were cultured with 5×10^4 fresh or fixed commercial APC (VAVY) cells. T cell proliferation was measured by IL-2 ELISA on supernatants collected after 48 h. The graph represents the mean of duplicate measurements±SEM. (B) DR3 mice were immunized with HIP-115 and a T cell line was established. Ten days after immunization the LN and spleens were harvested and cultured with different concentrations of peptide (0.1-1-2.5 and 5 μg/ml); 2×10^6 cells/ml APC+1×10^6 cells/ml CD4 T cells per well. At day 7 the cells were re-stimulated with the same concentrations of peptide. On day 14 an APIPS test was done using commercial APC (VAVY). After 24 h, antigen-induced T cell activation was measured by IFN-γ ELISA and shown as IFN-γ concentration (pg/ml). The graph represents the mean of duplicate measurements±SEM. LN, lymph nodes; APC, Antigen presenting cell; APIPS, Antigen Processing Independent Presentation System.
as §1, with “3:” for “2:”, “HIP-241125.” for “HIP-115.”, “HIP-241125+HIP-24DG” for “HIP-115”
(§2) FIG. 5: Identification of apitopes within HIP-17GN. DR3 mice were immunized with HIP-17GN and a T cell line was established. Ten days after immunization the LN and spleens were harvested and cultured with different concentrations of peptide (0.1-1-2.5 and 5 μg/ml); 2×10^6 cells/ml APC+1×10^6 cells/ml CD4 T cells per well. At day 7 the cells were re-stimulated with the same concentrations of peptide. On day 14 an APIPS test was done using commercial APC (VAVY). After 24 h, antigen-induced T cell activation was measured by IFN-γ ELISA and shown as OD values. The graph represents the mean of triplicate measurements±SEM. LN, lymph nodes; APC, Antigen presenting cell; APIPS, Antigen Processing Independent Presentation System.
as §2, with “6:” for “5:”, “HIP-12AK.” for “HIP-17GN.”, “HIP-12AK” for “HIP-17GN”, “IFN-γ concentration (pg/ml).” for “OD values.”, “duplicate” for “triplicate”
Antigen-specific clones or TCL were tested for their reactivity to the peptides, presented by fixed or not fixed (fresh) cells (VAVY or MGAR) (=APCs). 5×10^4 cells from the individual clones were cultured with 10 μg/ml peptide and 5×10^4 fixed or fresh APCs. […]

[3] = tested on: T cell line with MGAR APC; experiment: Antigen Processing Independent Presentation System (APIPS) assay, fresh or fixed MGAR APC; type: cell-based, DR2 mice; conditions: DR2 T cell line, IFN-γ, 24 h
Description: FIG. 4: Identification of apitopes within HIP-9FL. DR2 mice were immunized with HIP-9FL-KKK and a T cell line was established. Ten days after immunization the LN and spleens were harvested and cultured with different concentrations of peptide (0.1-1-2.5 and 5 μg/ml); 2×10^6 cells/ml APCs+1×10^6 cells/ml CD4 T cells per well. At day 7 the cells were re-stimulated with the same concentrations of peptide. On day 21 an APIPS test was done using commercial APC (MGAR). After 24 h, antigen-induced T cell activation was measured by IFN-γ ELISA and shown as OD values. The graph represents the mean of duplicate measurements±SEM. LN, lymph nodes; APC, Antigen presenting cell; APIPS, Antigen Processing Independent Presentation System.
Antigen-specific clones or TCL were tested for their reactivity to the peptides, presented by fixed or not fixed (fresh) cells (VAVY or MGAR) (=APCs). 5×10^4 cells from the individual clones were cultured with 10 μg/ml peptide and 5×10^4 fixed or fresh APCs. In the case of TCL, 5×10^4 cells were cultured with 10 μg/ml and 25 μg/ml peptide and 2.5×10^4 fixed or fresh APCs. To fixate APCs, cells were incubated with 0.5% paraformaldehyde (Merck, Darmstadt, Germany) (pH7) for 5 min at room temperature (RT). The fixation reaction was stopped by adding 0.4M glycine (Sigma-Aldrich) and washing the cells in RPMI-10% FCS. Additionally, reactivity towards human SAg protein (QBiologicals, Eurofins Amatsigroup, Ghent, Belgium) was measured to identify cryptic epitopes. After 24 h or 48 h, antigen-induced IFN-γ or IL-2 production (respectively) was measured by ELISA (R&D Systems, Abingdon, UK).
DR3tg or DR2tg mice were immunised subcutaneously in the base of the tail with 50 μg peptide emulsified in CFA (peptide/CFA). Ten days after immunisation, draining lymph nodes (LN) and spleens were harvested. […] At day 7, TCL cells were counted and cultured with fresh APC, peptides and IL-2, all at the same concentrations as above. […]

Substance | tolerization against the peptide itself / parental peptide ([1]; LN) | tolerization against the peptide itself ([1]; spleen) | behaves as apitope (response to peptide presented by fresh or fixed APC) [2] | behaves as apitope (response to peptide presented by fresh or fixed APC) [3]
KKKGILVSYQIKVKKKK-NH2 [HIP-12G1-KKK, KKKGILVSYQIKVKKKK] | tolerization induced | tolerization induced | behave as apitopes | 
KKKVKKIKAFVEQVANVVLYSSDYKKK-NH2 [HIP-9FL-KKK] |  |  |  | behave as apitopes
VKKIKAFVEQVANVVLYSSDY-NH2 [HIP-9FL] |  |  |  | behave as apitopes
